A short description of data set [1]: Ocular bioavailability following topical ocular administration of 2% isotonic or in situ gel-forming solution (Examples 5, 6). The note with it: rabbit. It counts as in vivo, New Zealand White rabbit. An excerpt:
The objective of this study was to determine the pharmacokinetics of mecamylamine, administered either as an isotonic solution (prepared as in Example 3) or in situ gel-forming solution (as prepared in Example 4), in the plasma, vitreous humor and retina of the eyes when applied topically to the surface of the eye.
The study comprised 2 groups (N=4/group; 8 rabbits total) of male NZW rabbits each weighing approximately 2-3 kg and obtained from Kralek Farms (Turlock, Calif.). […] For both groups, samples of the vitreous(≧0.1 ml) were withdrawn at 6 time points (one withdrawal per eye): pre-dose, 30 min, 1 (sacrifice), 3, 6, 12, and 24 (sacrifice) hr. At all time points, only duplicate vitreous fluid samples (each coming from different eye from different animals) were collected in order to minimize pain and damage to rabbit eyes.
Blood for plasma(≧0.5 ml) and intra-vitreal fluid (˜0.1 ml) were collected at 0, 30, 60 min from each animal with sacrifice for 2 animals/group at 60 minutes. […]
A 0.5 mg/mL stock of mecamylamine hydrochloride USP in DMSO was prepared and used as the working standard to produce the calibration standards for quantification of the mecamylamine content in various samples collected as described above. […]
Each tissue sample collected was weighed. […] The samples were analyzed using LC/MS/MS and quantified using the calibration standards prepared in plasma as described above.

For the next data set, the system named is healthy adults. The data set can be described thus: Phase 1 ocular and systemic safety of mecamylamine ophthalmic solution (Example 11). In kind it is in vivo. The following applies: human. An excerpt: A phase 1 study entitled: “A Phase 1, Double-Masked, Randomized, 1-Day and 14-Day Escalating Dose Study to Assess the Ocular and Systemic Safety of Mecamylamine Ophthalmic Solution” was initiated in the United States in healthy adults. The safety objectives of this study were to evaluate the ocular and systemic safety of 4 concentrations of mecamylamine ophthalmic solution following 1-day (administered twice) and 14-day (BID) administration. The dose levels of mecamylamine ophthalmic solution evaluated were 0.03%, 0.1%, 0.3%, and 1%. A summary of the composition of the mecamylamine ophthalmic solution and placebo formulation is shown below in Table 7.
In the 1-day portion of the study, 10 subjects in each group were dosed in a single eye on two occasions with 6 hours between dosing. […] Subjects were evaluated for local (ocular) safety and tolerability based upon evaluation of ocular symptoms, ocular comfort, best-corrected visual acuity, biomicroscopy with fluorescein staining, measurement of intraocular pressure (IOP) by Goldman applanation tonometry, ophthalmoscopy, pupil size, and Schirmer's Test. They were also evaluated for systemic safety based upon assessment of physical examination, 12-lead ECG, vital signs, adverse events, hematology, clinical chemistry, and, urinalysis.

Molecules are shown by their SMILES.

For the compound `CNC1(C)C2CCC(C2)C1(C)C` (stereo not shown) [mecamylamine, N-2,3,3-tetramethylbicyclo(2.2.1)heptan-2-amine], the “retinal/choroidal tissue:plasma ratio, topical compared to systemic administration” value in data set [1] is “at least 40 fold”. Besides, the “levels of mecamylamine in erythrocytes (red blood cells) versus plasma” value in data set [1] (topical ocular) was “comparable”. Moreover, in the data set with healthy adults, the best-corrected visual acuity result was “no change in best corrected visual acuity” and the pupil size result is given as “none of the subjects tested showing an increase in pupil diameter”.

These data come from patent US20070167526A1, “Topical mecamylamine formulations for ocular administration and uses thereof” (priority 2005, published 2007).
